Here are results for twelve molecules from ChEMBL document CHEMBL1201862, “PubChem BioAssay data set” (2004).

What all share (assay): NCI tumour cell line growth inhibition, 48 h
Test [1] has as its system DU-145.
In test [2] the test system is HCT-15.
For test [3], the system named is HL-60.
The test system of test [4] is HOP-92.
For test [5], the system named is IGROV-1.
In test [6] the test system is MDA-MB-231.
Test [7] deals with MDA-MB-435.
The test system of test [8] is Malme-3M.
Test [9] deals with NCI-H23.
In test [10] the test system is NCI-H460.
In test [11] the test system is NCI-H522.
Test [12] relates to OVCAR-4.
In test [13] the test system is OVCAR-5.
Test [14] has as its system SF-295.
Test [15] has as its system SN12C.
Test [16] concerns T47D.
Test [17] relates to UACC-257.
In test [18] the test system is UO-31.
For test [19], the system named is Hs-578T.

Each structure is given as a SMILES string.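 Results reflect a 48-hour exposure of cells in 96-well plates to compound at five concentrations. Here, GI50 denotes the concentration required for 50% inhibition of growth.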 Calls of active or inactive are those of the source. Rule as the data show it: active = GI50 up to about 1.1 µM and inactive = higher. Where a SMILES comes first, the peptide text is derived from it. The star is where a group is joined. Cbz = O=C(OCc1ccccc1)* Some results are limits rather than exact numbers.

`O=C1CC(c2ccc(Cl)cc2)C2(C(=O)NC(=O)NC2=O)C(c2ccc(Cl)cc2)C1` (centres undefined): the GI50 in test [1] is 21.7 µM (inactive); in [2], 22.9 µM; in [3], 19.5 µM (inactive); in test [4] it was 14.7 µM (inactive); in [5], 18 µM (inactive); in test [6], 13.4 µM (inactive). Further, the GI50 is 17.3 µM (inactive) in [7]; 17.1 µM (inactive) in test [8]; 34 µM (inactive) in [9]; 28.6 µM (inactive) in [10]; 17.5 µM (inactive) in test [11]; 38.5 µM (inactive) in test [12]. Also, the GI50 in [13] is 31.3 µM (inactive); in [14], 28.8 µM (inactive); in test [15] it was 21.6 µM (inactive); in [16] it was 17.9 µM (inactive); in [17], 30.8 µM (inactive); in [18] it was 25.6 µM (inactive).

For `COc1ccccc1CNC(=O)[C@H](Cc1ccc(O)cn1)NC(C)=O`, the GI50 in test [1] is > 100 µM (inactive); in [2] it was more than 100 µM; in test [3] it was > 100 µM (inactive); in [4], 57.7 µM (inactive); in test [19], > 100 µM (inactive); in test [5], > 100 µM (inactive). The GI50 in test [7], in test [8], in test [9], in test [10], in [11] and in test [12] was > 100 µM (inactive) in each case. Also, the GI50 in test [13], in [14], in test [15], in test [16], in test [17] and in [18] was > 100 µM (inactive) in each case.

Consider `Cc1cc(N(C)c2ccccc2)nc(N(C)c2ccccc2)n1`, for which the GI50 in test [1] is 92.3 µM (inactive); in [2] it was 32.1 µM; in [3], 37.8 µM (inactive); in [19] it was 26.8 µM (inactive); in test [5], 39 µM (inactive); in test [6], 33.2 µM (inactive). The GI50 in test [7] was 42.9 µM (inactive); in test [8], 26.9 µM (inactive); in [9] it was 36.7 µM (inactive); in test [10], 49.9 µM (inactive); in test [11] it was 36.9 µM (inactive); in [12], > 100 µM (inactive). Besides, the GI50 in [13] was 21.2 µM (inactive); in [14], 20.2 µM (inactive); in [15], 46.8 µM (inactive); in [17], 25.4 µM (inactive); in test [18], 80.2 µM (inactive).

Regarding `O=CC12C3CCC1C2C(=O)C3` (centres undefined), the GI50 was > 100 µM (inactive) in test [1]; more than 100 µM in test [2]; > 100 µM (inactive) in test [4]; > 100 µM (inactive) in test [5]; > 100 µM (inactive) in [6]; > 100 µM (inactive) in test [7]. Further, the GI50 in [8], in test [9], in [10], in test [11], in [12] and in test [13] was > 100 µM (inactive) throughout. Besides, the GI50 in [14], in test [15] and in test [17] was > 100 µM (inactive) each time.

With `COc1ccc(N[S+]([O-])c2cccc(C)c2)cc1` (centres undefined), the GI50 is > 100 µM (inactive) in test [1]; 5.21 µM in [2]; 25.7 µM (inactive) in test [3]; 87.9 µM (inactive) in test [19]; 28.3 µM (inactive) in [5]; 48.5 µM (inactive) in test [6]. Moreover, the GI50 in test [7] is 34.9 µM (inactive); in test [8], 75.5 µM (inactive); in [9], > 100 µM (inactive); in test [10], 30 µM (inactive); in test [11], 8.59 µM (inactive); in [13] it was > 100 µM (inactive). Also, the GI50 in test [14] was > 100 µM (inactive); in test [15] it was > 100 µM (inactive); in [17], > 100 µM (inactive); in test [18] it was 20.4 µM (inactive).

For the molecule `O=C(NCCCN(CCCCN(CCCNC(=O)C(F)(F)F)Cc1ccc2ccccc2c1)Cc1ccc2ccccc2c1)C(F)(F)F`, the GI50 was > 100 µM (inactive) in test [1]; 6.12 µM in test [2]; 0.74 µM (active) in test [3]; > 100 µM (inactive) in test [4]; 7.87 µM (inactive) in test [5]; > 100 µM (inactive) in test [6]. The GI50 in test [7] is 1.9 µM (inactive); in test [10], 2.21 µM (inactive); in test [11], 8.93 µM (inactive); in test [12], 2.62 µM (inactive); in test [13], > 100 µM (inactive); in test [14], > 28.6 µM (inactive). Besides, the GI50 was > 100 µM (inactive) in test [15], 5.05 µM (inactive) in test [16], 2.28 µM (inactive) in test [17] and 2.33 µM (inactive) in test [18].

As for `[O-][S+](CC1(O)CCCCC1)c1ccccc1` (centres undefined), the GI50 in test [1] was > 100 µM (inactive); in [2], more than 100 µM; in test [3], > 100 µM (inactive); in test [19] it was > 100 µM (inactive); in [5], > 100 µM (inactive); in [6], > 100 µM (inactive). Further, the GI50 in [8], in test [9], in test [10], in [11], in test [12] and in test [13] was > 100 µM (inactive) in each case. Also, the GI50 in [14], in [15], in test [16], in test [17] and in [18] was > 100 µM (inactive) throughout.

As for `N#C[C@H]1C(=O)C(c2nc3ccccc3[nH]2)S[C@H]1c1ccccc1` (some centres undefined), the GI50 in [1] was 45.1 µM (inactive); in test [2], 38 µM; in test [3], 25.4 µM (inactive); in [4], 25.5 µM (inactive); in test [19], 45.2 µM (inactive); in test [5] it was 26.9 µM (inactive). Besides, the GI50 in test [7] was 35 µM (inactive); in [8], 29.9 µM (inactive); in [9], 27.5 µM (inactive); in test [10] it was 35.1 µM (inactive); in [11] it was 21.2 µM (inactive); in [12], 34.2 µM (inactive). The GI50 in test [13] is 92.9 µM (inactive); in test [14] it was 25.2 µM (inactive); in test [15], 20 µM (inactive); in test [17], 63.2 µM (inactive); in test [18], 26.9 µM (inactive).

Turning to `O=C1Nc2ccccc2C(=O)O/C(Cc2ccccc2)=N\c2ccccc21`, the GI50 in test [1] was > 100 µM (inactive); in test [2] it was more than 100 µM; in [3] it was > 100 µM (inactive); in test [5] it was > 100 µM (inactive); in test [7], > 100 µM (inactive); in test [9] it was > 100 µM (inactive). Further, the GI50 in test [10], in test [11], in [12], in [13], in [14] and in test [15] was > 100 µM (inactive) each time. Also, the GI50 was > 100 µM (inactive) in test [16], 54.6 µM (inactive) in test [17] and > 100 µM (inactive) in test [18].

As to `COc1cc(OC)c(-c2oc3ccccc3c(=O)c2O)c(OC)c1`, the GI50 in test [2] was 2.99 µM; in test [3] it was 2.43 µM (inactive); in [4] it was 8.17 µM (inactive); in [19], 2.39 µM (inactive); in test [5] it was 4.37 µM (inactive); in [6], > 20.7 µM (inactive). The GI50 is 0.889 µM (active) in [7]; 2.86 µM (inactive) in test [8]; 17.3 µM (inactive) in [9]; 3.21 µM (inactive) in test [10]; 2.75 µM (inactive) in [11]; 0.237 µM (active) in test [12]. The GI50 in test [13] is > 100 µM (inactive); in test [14], 2.44 µM (inactive); in test [15], > 100 µM (inactive); in [16] it was 4.16 µM (inactive); in test [17], > 91.6 µM (inactive); in test [18], > 62.7 µM (inactive).

In the case of `CCOC(=O)CCC(NC(=O)C(CC(=O)OC)NC(=O)OCc1ccccc1)C(=O)NC(CC(=O)OC)C(=O)NC(CCC(=O)OCC)C(=O)NC(CC(=O)OC)C(=O)NC(CCC(=O)OCC)C(=O)NC(CC(=O)OCC)C(=O)OCC` (centres undefined) (Cbz-D(OMe)E(OEt)D(OMe)E(OEt)D(OMe)E(OEt)D(OEt)-OEt; configuration not given here), the GI50 in test [1] was > 100 µM (inactive); in [2] it was more than 100 µM; in [3], > 100 µM (inactive); in [5] it was > 100 µM (inactive); in test [6], > 100 µM (inactive); in [7], > 100 µM (inactive). Also, the GI50 in [8], in test [9], in test [10], in [11], in [12] and in test [13] was > 100 µM (inactive) each time. Further, the GI50 in [15], in [16], in test [17] and in test [18] was > 100 µM (inactive) in each case.

On to `O=C(NCP(=O)(O)O)c1cccnc1` [(NICOTINAMIDOMETHYL)PHOSPHONIC ACID], for which the GI50 was > 100 µM (inactive) in test [1]; more than 100 µM in test [2]; > 100 µM (inactive) in test [3]; > 100 µM (inactive) in test [4]; > 100 µM (inactive) in [5]; > 100 µM (inactive) in [6]. Moreover, the GI50 in test [7], in test [9], in [10], in test [12], in test [13] and in test [14] was > 100 µM (inactive) throughout. Further, the GI50 in [15], in [16], in test [17] and in [18] was > 100 µM (inactive) throughout.
